Assay results: patent US20240150322A1, “CDK9 Inhibitors” (Biolexis Therapeutics, Inc., priority 2022, published 2024)

Tests used:
C4-2B = test: 2D CellTiter-Glo cell viability assay; type: cell-based
Procedure: CellTiter-Glo® 2.0 Luminescent cell viability assay reagent was purchased from Promega and 22Rv1, LASCPC-01, C4-2, C4-2B and NCI-H660, DU-145, PC-3 and LNCap cell lines were obtained from ATCC and a clinical core facility at Huntsman Cancer Institute. […] The results of cell viability were obtained and IC50 values were calculated (see Table 5, below) showing sub-micromolar cell killing of these prostate cancer cells.

Prostate cancer cells = test: Colony formation assay 2; type: cell-based; details: 0.123 to 10 μM for 72 hours
C4-2 = test: Annexin V/7-AAD apoptosis assay; type: cell-based; details: C4-2, treated for 72 hours
CDK2/cyclinA = CDK2/cyclinA (Homo sapiens, UniProt P24941); test: DiscoveRx KINOMEscan Kd (KdELECT); type: binding
Procedure: (§1) CDKs family kinases profiling assays were performed with DiscoveRx Matrix of Kds KINOMEscan (KdELECT) and Reaction Biology using miniaturized radioisotope-based assay platform (^33P). IC50 value estimated based on the best curve fitting available.

CDK3/cyclinE = CDK3/cyclinE (Homo sapiens, UniProt Q00526); test: DiscoveRx KINOMEscan Kd (KdELECT); type: binding
Procedure: as §1

CDK4/cyclinD = CDK4/cyclinD (Homo sapiens, UniProt P11802); test: DiscoveRx KINOMEscan Kd (KdELECT); type: binding
Procedure: as §1

ERK8 = ERK8 (Homo sapiens, UniProt Q8TD08); test: scanMAX panel and Kd follow-up; type: binding
CDK9 + Cyclin T1 = CDK9 + Cyclin T1 (Homo sapiens, UniProt P50750); test: cell-based
Chain of CDK9 + Cyclin T1 (P50750 whole entry): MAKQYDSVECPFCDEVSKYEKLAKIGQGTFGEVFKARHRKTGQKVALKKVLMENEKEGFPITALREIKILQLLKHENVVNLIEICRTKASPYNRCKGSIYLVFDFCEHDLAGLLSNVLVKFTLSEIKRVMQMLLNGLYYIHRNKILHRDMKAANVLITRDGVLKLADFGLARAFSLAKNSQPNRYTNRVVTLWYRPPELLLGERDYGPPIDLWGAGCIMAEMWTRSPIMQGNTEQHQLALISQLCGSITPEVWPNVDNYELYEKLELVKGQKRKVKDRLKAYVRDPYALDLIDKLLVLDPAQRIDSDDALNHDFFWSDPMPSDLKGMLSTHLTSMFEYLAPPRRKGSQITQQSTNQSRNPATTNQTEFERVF
Chain of CDK9 + Cyclin T1 (O60563 whole entry partner): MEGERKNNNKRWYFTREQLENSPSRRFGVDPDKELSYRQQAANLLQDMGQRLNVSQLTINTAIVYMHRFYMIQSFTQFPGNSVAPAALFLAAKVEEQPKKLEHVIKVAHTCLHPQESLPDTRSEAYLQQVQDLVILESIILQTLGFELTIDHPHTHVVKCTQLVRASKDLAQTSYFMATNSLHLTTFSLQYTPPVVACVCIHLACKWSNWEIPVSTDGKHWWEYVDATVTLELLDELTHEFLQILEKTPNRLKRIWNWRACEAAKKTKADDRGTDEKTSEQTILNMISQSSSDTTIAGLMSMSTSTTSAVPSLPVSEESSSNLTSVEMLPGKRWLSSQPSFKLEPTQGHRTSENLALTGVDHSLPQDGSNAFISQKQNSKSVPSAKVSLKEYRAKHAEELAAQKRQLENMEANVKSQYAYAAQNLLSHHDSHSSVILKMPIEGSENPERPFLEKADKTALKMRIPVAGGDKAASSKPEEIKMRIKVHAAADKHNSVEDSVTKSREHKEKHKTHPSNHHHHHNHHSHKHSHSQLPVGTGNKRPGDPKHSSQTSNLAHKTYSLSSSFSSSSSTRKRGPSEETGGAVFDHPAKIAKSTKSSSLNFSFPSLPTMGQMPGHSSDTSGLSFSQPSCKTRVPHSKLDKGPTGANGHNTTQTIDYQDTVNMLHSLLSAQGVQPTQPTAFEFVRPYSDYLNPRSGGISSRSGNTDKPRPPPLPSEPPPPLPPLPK

Chain of ERK8 (Q8TD08 whole entry): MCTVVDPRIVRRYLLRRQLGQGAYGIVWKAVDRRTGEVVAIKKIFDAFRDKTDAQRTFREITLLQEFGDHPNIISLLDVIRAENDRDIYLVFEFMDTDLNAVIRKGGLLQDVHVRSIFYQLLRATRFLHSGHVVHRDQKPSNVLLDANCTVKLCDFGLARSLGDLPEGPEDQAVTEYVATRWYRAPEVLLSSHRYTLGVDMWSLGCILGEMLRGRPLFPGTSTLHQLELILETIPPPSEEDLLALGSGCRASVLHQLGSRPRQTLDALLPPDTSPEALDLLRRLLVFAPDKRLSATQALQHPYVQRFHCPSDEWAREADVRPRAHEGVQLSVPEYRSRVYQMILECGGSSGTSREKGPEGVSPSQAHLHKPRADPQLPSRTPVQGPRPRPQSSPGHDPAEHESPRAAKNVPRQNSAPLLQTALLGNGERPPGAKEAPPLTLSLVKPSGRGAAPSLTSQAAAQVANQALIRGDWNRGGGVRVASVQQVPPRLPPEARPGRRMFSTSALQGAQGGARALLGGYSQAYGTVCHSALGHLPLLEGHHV
Chain of CDK3/cyclinE (Q00526 whole entry): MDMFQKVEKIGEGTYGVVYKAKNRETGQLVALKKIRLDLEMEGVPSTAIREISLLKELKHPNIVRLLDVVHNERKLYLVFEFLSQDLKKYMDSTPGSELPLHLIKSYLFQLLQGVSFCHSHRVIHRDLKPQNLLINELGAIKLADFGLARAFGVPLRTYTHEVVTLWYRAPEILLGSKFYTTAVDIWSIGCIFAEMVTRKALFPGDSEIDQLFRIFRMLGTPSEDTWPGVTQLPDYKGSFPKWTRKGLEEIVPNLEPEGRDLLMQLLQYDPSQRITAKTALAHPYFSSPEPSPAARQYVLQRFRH
Chain of CDK4/cyclinD (P11802 whole entry): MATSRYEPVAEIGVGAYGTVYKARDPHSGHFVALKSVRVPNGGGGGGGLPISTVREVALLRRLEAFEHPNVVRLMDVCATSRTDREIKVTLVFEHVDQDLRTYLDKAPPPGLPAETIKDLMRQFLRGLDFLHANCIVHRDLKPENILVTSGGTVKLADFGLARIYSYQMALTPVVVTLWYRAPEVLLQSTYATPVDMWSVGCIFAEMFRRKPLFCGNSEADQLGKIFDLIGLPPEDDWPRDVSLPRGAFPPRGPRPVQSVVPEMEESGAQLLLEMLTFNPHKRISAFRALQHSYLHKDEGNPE
Chain of CDK4/cyclinD (P24385 whole entry partner): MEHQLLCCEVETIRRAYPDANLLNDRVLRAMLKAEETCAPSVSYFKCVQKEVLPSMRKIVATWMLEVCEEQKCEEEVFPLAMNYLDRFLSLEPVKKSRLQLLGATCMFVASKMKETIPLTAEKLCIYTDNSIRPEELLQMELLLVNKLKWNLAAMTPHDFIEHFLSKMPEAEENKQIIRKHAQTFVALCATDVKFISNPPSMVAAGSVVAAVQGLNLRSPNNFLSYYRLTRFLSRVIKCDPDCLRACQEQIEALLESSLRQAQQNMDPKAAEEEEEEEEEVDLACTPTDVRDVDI

`CC(C)c1c2cc(-c3ccnc(N[C@H]4CC[C@H](N)C4)n3)ccc2nn1C` [Compound I-2, (1S,3S)-[3-[4-(3-isopropyl-2-methylindazol-5-yl)pyrimidin-2-yl]aminocyclopentan-1-yl]-1,3-diamine] was tested, and the IC50 (C4-2B; 72 h) was 31 nM, the IC50 (C4-2B; 72 hours) was 31.9 nM and the colony formation (Prostate cancer cells) was “complete inhibition of colony formation”. The cell death (C4-2) was 84%, the Kd (CDK2/cyclinA) was 30 nM and the Kd (CDK3/cyclinE) was 31 nM. The Kd (CDK4/cyclinD) was 22 nM, the Kd (ERK8; ERK8) was 5.5 nM and the remaining binding at 1 µM (ERK8; ERK8, 1 μM, read-out: % of control activity) was 0 to 1%. The IC50 (CDK9 + Cyclin T1) was 15.6 nM.
